The assay relates to HT-29. In words: Cytotoxicity in human HT-29 cells assessed as inhibition of cell growth incubated for 72 hrs by MTT assay. The format is functional, cell-based. Particulars: HT-29, 72 h. (Tetrazolium assays rely on reduction of a dye to a coloured formazan, in cell work by metabolically active cells.)

One may read the IC50 as the concentration at which inhibition is half-maximal.

As for `C=C1c2[nH]c3ccccc3c2C[C@H]2[N@]3CC[C@]12/C(=C\C)C3`, the IC50 was found to be 6.2 µM.

Consider `C[C@H](O)[C@@]12CN3CCc4c([nH]c5ccccc45)[C@@H]3C[C@@H]1C(=O)CO2`, for which the concentration for half-maximal inhibition (IC50) was > 30 µM.

These data come from ChEMBL document CHEMBL4339239, “A Cytotoxic Indole Characterized by Incorporation of a Unique Carbon-Nitrogen Skeleton and Two Pentacyclic Corynanthean Alkaloids Incorporating a Substituted Tetrahydrofuranone Ring from Kopsia arborea” (J Nat Prod, 2019).
